Test results: publication PMC7956643, “Synthesis of Novel Pyrido[1,2-c]pyrimidine Derivatives with 6-Fluoro-3-(4-piperidynyl)-1,2-benzisoxazole Moiety as Potential SSRI and 5-HT1A Receptor Ligands” (International Journal of Molecular Sciences, 2021)
“Also recorded” adds a separate entry of the source. Marks after values point to notes of the source that are not given here.

Columns and labels:
[1] = target: T1, 5-HT1A receptor (Mus musculus, UniProt Q64264); assay: Effect of WAY-100635 on the hypothermia induced by tested compounds; type: in vivo, CD-1 mice; conditions: mice
T1 construct: from tissue; host or cells: whole animal, male CD-1 mice
T1 sequence (Q64264 1-421): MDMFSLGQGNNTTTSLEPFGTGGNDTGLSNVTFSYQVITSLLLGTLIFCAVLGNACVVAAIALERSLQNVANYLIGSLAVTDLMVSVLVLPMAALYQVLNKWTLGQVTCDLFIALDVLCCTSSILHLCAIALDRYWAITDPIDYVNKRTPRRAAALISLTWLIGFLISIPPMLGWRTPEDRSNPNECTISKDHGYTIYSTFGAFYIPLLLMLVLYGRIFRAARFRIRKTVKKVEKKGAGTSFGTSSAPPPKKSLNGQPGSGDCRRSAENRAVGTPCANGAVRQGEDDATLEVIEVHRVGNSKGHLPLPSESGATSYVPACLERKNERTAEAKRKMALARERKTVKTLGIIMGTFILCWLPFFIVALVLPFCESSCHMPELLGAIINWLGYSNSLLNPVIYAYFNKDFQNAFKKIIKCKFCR
Protocol: (§1) The experiments were performed on male CD-1 mice (23–40 g). The animals were kept at room temperature (21 ± 2 °C) on a natural day-night cycle (March–October) and housed under standard laboratory conditions. They had free access to food and tap water before the experiment. Each experimental group consisted of 6–8 animals/dose. All the animals were used only once. 8-Hydroxy-2-(di-n-propylamino)tetralin hydro-bromide (8-OH-DPAT, Research Biochemical Inc.) was used as aqueous solution. […] Vehicle group was administered as 10% aqueous solution of dimethyl sulphoxide (DMSO). 8-OH-DPAT was injected subcutaneously (sc); 6a and 7g were given intraperitoneally (ip) in a volume of 10 mL/kg/mice. The obtained data were analyzed by Dunnett’s test (one drug administration) or by the Newman–Keuls test (two drugs administrations). Forced swim test: the obtained data was evaluated by one-way analysis of variance (ANOVA) followed by the Dunnett’s multiple comparisons test: p < 0.05 was considered significant.
(§2) The results were expressed as a change in body temperature (Δt) with respect to the basal body temperature, as measured at the beginning of the experiment.

[2] = target: T1, 5-HT1A receptor; assay: Body temperature in mice (induced hypothermia); type: in vivo, CD-1 mice
Protocol: as §1, §2

[3] = system: CD-1 mice; assay: Forced swim test in mice; type: in vivo; conditions: administered 30 min before test
Protocol: All studies were performed according to the guidelines of the European Community Council (Directive 86/609/EEC) and were approved by the Ethical Committee of the Institute of Pharmacology (88/2016, 05/31/2016). The experiments were performed on male CD-1 mice (23–40 g). The animals were kept at room temperature (21 ± 2 °C) on a natural day-night cycle (March–October) and housed under standard laboratory conditions. They had free access to food and tap water before the experiment. Each experimental group consisted of 6–8 animals/dose. All the animals were used only once. 8-Hydroxy-2-(di-n-propylamino)tetralin hydro-bromide (8-OH-DPAT, Research Biochemical Inc.) was used as aqueous solution. Compounds 6a and 7g were suspended in a 10% aqueous solution of dimethyl sulphoxide (DMSO). Vehicle group was administered as 10% aqueous solution of dimethyl sulphoxide (DMSO). […] The obtained data were analyzed by Dunnett’s test (one drug administration) or by the Newman–Keuls test (two drugs administrations). Forced swim test: the obtained data was evaluated by one-way analysis of variance (ANOVA) followed by the Dunnett’s multiple comparisons test: p < 0.05 was considered significant.
The forced swim test (FST) was carried out according to the method of Porsolt at al.. […] After the first 2 min adaptation period, the total duration of immobility was measured during the last 4 min test. […]

Δt ± SEM, body temperature ([1]; WAY-100635 0.1 mg/kg sc 15 min before compound 0.6 mg/kg, 30 min): −0.5 ± 0.2 ^b,d °C
Δt ± SEM, body temperature ([1]; WAY-100635 0.1 mg/kg sc 15 min before compound 0.6 mg/kg, 60 min): −0.4 ± 0.2 ^a,e °C
Hypothermia induced by compound diminished by WAY-100635 ([1]; WAY-100635 0.1 mg/kg, compound 0.6 mg/kg): 50%
Δt ± SEM, body temperature ([1]; vehicle + compound 0.6 mg/kg, 30 min): −1.0 ± 0.2 ^c °C
Δt ± SEM, body temperature ([1]; vehicle + compound 0.6 mg/kg, 60 min): −1.2 ± 0.1 ^c °C
Induction of hypothermia in mice ([2]; mice): induced hypothermia
Δt ± SEM, body temperature ([2]; mice, 0.6 mg/kg ip, 30 min): −1.0 ± 0.2 ^b °C
Δt ± SEM, body temperature ([2]; mice, 0.6 mg/kg ip, 60 min): −1.2 ± 0.1 ^b °C
Δt ± SEM, body temperature ([2]; mice, 0.6 mg/kg ip, 90 min): −0.9 ± 0.1 ^a °C
Δt ± SEM, body temperature ([2]; mice, 0.6 mg/kg ip, 120 min): −0.8 ± 0.2 ^a °C
Δt ± SEM, body temperature ([2]; mice, 1.25 mg/kg ip, 30 min): −1.7 ± 0.3 ^b °C
Δt ± SEM, body temperature ([2]; mice, 1.25 mg/kg ip, 60 min): −1.7 ± 0.3 ^b °C
Δt ± SEM, body temperature ([2]; mice, 1.25 mg/kg ip, 90 min): −1.6 ± 0.2 ^b °C
Δt ± SEM, body temperature ([2]; mice, 1.25 mg/kg ip, 120 min): −1.6 ± 0.3 ^b °C
Δt ± SEM, body temperature ([2]; mice, 2.5 mg/kg ip, 30 min): −1.6 ± 0.2 ^b °C
Δt ± SEM, body temperature ([2]; mice, 2.5 mg/kg ip, 60 min): −2.5 ± 0.3 ^b °C
Δt ± SEM, body temperature ([2]; mice, 2.5 mg/kg ip, 90 min): −2.4 ± 0.3 ^b °C
Δt ± SEM, body temperature ([2]; mice, 2.5 mg/kg ip, 120 min): −2.0 ± 0.2 ^b °C
Δt ± SEM, body temperature ([2]; mice, 5 mg/kg ip, 30 min): −2.0 ± 0.2 ^b °C
Δt ± SEM, body temperature ([2]; mice, 5 mg/kg ip, 60 min): −3.2 ± 0.5 ^b °C
Δt ± SEM, body temperature ([2]; mice, 5 mg/kg ip, 90 min): −3.1 ± 0.5 ^b °C
Δt ± SEM, body temperature ([2]; mice, 5 mg/kg ip, 120 min): −2.8 ± 0.5 ^b °C
Compound: O=c1c(-c2ccccc2)c2ccccn2c(=O)n1CCCCN1CCC(c2noc3cc(F)ccc23)CC1 [Compound 6a, 4-Phenyl-2-{4-[4-(6-fluoro-1,2-benzoxazol-3-yl)-1-piperidyl]butyl}-pyrido[1,2-c]pyrimidine-1,3-dione]
Functional 5-HT1A receptor activity profile ([2]; concluded from induced hypothermia test in mice): presynaptic agonist of the 5-HT1A receptor; also recorded: presynaptic 5-HT1A agonistic activity
Effect in the forced swimming test [3]: inactivity; also recorded: ineffective
